The source of these data is ChEMBL document CHEMBL1139355, “Selectively targeting T- and B-cell lymphomas: a benzothiazole antagonist of alpha4beta1 integrin” (J Med Chem, 2009).

This test deals with Integrin alpha-4/beta-1 (Homo sapiens, UniProt P05556+P13612). As to the kind of experiment: Inhibition of human integrin alpha-4-beta-1-mediated MOLT4 cell adhesion to biotin-conjugated CS-1 peptide. The class given is cell-based, MOLT-4.
Chain of Integrin alpha-4/beta-1 (P05556 whole entry): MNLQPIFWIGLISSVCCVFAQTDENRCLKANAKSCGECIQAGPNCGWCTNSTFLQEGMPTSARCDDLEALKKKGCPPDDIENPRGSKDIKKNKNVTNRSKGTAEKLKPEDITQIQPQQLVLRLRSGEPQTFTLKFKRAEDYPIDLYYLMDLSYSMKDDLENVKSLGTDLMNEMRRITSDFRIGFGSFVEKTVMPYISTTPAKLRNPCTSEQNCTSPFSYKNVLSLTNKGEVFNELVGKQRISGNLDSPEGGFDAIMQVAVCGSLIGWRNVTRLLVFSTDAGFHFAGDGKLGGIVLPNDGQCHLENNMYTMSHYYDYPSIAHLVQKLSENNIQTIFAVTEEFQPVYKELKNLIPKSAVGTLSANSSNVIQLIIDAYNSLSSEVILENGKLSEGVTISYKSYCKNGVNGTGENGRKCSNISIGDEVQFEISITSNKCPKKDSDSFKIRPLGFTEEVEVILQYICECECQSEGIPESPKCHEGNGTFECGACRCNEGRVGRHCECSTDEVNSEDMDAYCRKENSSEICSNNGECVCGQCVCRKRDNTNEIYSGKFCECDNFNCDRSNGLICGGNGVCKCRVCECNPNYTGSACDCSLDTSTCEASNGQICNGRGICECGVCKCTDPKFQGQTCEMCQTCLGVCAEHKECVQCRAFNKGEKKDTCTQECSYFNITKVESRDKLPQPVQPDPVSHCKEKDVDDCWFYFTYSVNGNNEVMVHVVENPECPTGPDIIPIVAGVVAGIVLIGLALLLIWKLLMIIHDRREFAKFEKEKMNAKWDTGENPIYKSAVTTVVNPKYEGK
Chain of Integrin alpha-4/beta-1 (P13612 whole entry): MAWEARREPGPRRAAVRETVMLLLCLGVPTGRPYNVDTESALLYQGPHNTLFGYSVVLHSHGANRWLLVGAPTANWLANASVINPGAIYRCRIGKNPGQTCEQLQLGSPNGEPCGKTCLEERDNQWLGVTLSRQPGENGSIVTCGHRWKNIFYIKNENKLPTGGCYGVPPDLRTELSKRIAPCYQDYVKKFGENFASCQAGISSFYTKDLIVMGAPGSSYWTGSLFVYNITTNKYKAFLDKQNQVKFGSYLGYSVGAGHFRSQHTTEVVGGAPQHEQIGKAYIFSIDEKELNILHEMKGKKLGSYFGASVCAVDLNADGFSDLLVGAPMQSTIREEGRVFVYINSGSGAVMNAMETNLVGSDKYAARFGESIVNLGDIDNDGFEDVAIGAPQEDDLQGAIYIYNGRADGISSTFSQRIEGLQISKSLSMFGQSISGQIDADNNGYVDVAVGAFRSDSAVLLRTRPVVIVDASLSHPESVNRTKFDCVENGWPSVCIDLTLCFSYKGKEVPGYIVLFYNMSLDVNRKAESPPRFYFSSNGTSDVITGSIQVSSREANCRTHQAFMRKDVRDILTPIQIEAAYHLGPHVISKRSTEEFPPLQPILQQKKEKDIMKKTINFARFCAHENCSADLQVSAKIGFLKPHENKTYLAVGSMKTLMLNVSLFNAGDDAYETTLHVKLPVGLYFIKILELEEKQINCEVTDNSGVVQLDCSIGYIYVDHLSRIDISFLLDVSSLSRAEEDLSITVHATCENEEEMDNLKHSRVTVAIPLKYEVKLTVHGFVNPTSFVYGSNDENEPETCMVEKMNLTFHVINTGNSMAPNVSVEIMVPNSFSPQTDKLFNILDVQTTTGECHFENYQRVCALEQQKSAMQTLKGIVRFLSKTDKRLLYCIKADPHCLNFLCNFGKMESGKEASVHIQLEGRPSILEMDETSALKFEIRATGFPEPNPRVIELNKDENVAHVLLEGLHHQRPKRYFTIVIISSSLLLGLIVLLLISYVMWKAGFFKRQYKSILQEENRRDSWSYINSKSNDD
Regarding `NC(=O)C1(NC(=O)[C@H](CCCC(=O)O)NC(=O)[C@H](CCCCNC(=O)/C=C/c2cccnc2)NC(=O)Cc2ccc(Nc3nc4ccccc4[nH]3)cc2)CCCCC1`, the IC50 (commonly the midpoint of a concentration-inhibition curve) came to 0.305 nM. Under `NC(=O)C1(NC(=O)[C@@H](CCCC(=O)O)NC(=O)[C@@H](CCCCNC(=O)/C=C/c2cccnc2)NC(=O)CCc2ccc(Nc3nc4cc(Br)ccc4[nH]3)cc2)CCCCC1` stands 378 nM; under `NC(=O)C1(NC(=O)[C@@H](CCCC(=O)O)NC(=O)[C@@H](CCCCNC(=O)/C=C/c2cccnc2)NC(=O)c2ccc(Nc3nc4ccccc4s3)cc2)CCCCC1`, 346 nM; under `NC(=O)C1(NC(=O)[C@@H](CCCC(=O)O)NC(=O)[C@@H](CCCCNC(=O)/C=C/c2cccnc2)NC(=O)Cc2ccc(Nc3nc4ccccc4s3)cc2)CCCCC1`, 0.0525 nM.
